# Assay results published in US7442841B2, “Extraction process” (Invista North America S.A R.L., priority 2006, dated 2008).
# What was measured:
# [1] = Liquid-liquid separation of cyclohexanol from cyclohexane, distribution coefficient by gas chromatography; format: physicochemical; conditions: for Cyclohexanol D (distribution coefficient): concentration in extracting solvent phase divided by concentration in cyclohexane phase, 1 mL stock solution + 1 mL extracting solvent; for Cyclohexanol Log D: extracting solvent/cyclohexane, equal volumes
# Method: The distribution coefficient for the separation was then calculated.
# [2] = Liquid-liquid separation of cyclohexanone from cyclohexane, distribution coefficient by gas chromatography; conditions: for Cyclohexanone D (distribution coefficient): concentration in extracting solvent phase divided by concentration in cyclohexane phase, 1 mL stock solution + 1 mL extracting solvent; for Cyclohexanone Log D: extracting solvent/cyclohexane, equal volumes
# Method: As used herein, the term “distribution coefficient” referring to the liquid-liquid separation refers to the concentration of the separable component in the ionic liquid-based phase divided by the concentration of the separable component in the non-polar solvent-based phase. These concentrations are measured subsequent to settling, i.e. when the separation mixture has reached equilibrium subsequent to the vigorous shaking.
# The general method used for all the examples was as follows.
# Stock solution; 250 mg cyclohexanol (Molecular Weight=100 gmol^−1) and 250 mg cyclohexanone (Molecular Weight=98 gmol^−1) in 10 g of cyclohexane (Molecular Weight=84 gmol^−1).
# Method: add 1 mL (0.8 g) of stock solution (20 mg each of cyclohexanol and cyclohexanone) to 1 mL of ionic liquid and shake vigorously. After settling time and complete phase separation, 3 drops of the top layer were added to a vial and filled with ethylene chloride. Gas chromatography analysis was used to provide the number of moles of the separable component in each liquid phase. The distribution coefficient for the separation was then calculated.
# [3] = Extraction of 2-octanone from octane, IL/Octane distribution coefficient; format: physicochemical; conditions: concentration of substrate in IL divided by concentration in octane
# Method: (§1) A corresponding set of experiments was conducted to study the extraction of octanol and 2-octanone from octane using ionic liquids. The results are presented in Table 2 below, in which the IL/Octane distribution coefficient is calculated as the concentration of substrate in IL divided by the concentration of substrate in octane.
# [4] = Extraction of octanol from octane, IL/Octane distribution coefficient; format: physicochemical; conditions: concentration of substrate in IL divided by concentration in octane
# Method: as §1
Cyclohexanol D (distribution coefficient) [1],Cyclohexanone D (distribution coefficient) [2],Cyclohexanol Log D [1],IL/Octane distribution coefficient 2-Octanone [3],IL/Octane distribution coefficient Octanol [4],Cyclohexanone Log D [2],SMILES
2.32,1.51,–,–,–,–,CCCCn1cc[n+](C)c1 [Example 4]
5.12,5.00,0.71,–,–,–,CCCC[N+]1(C)CCCC1 [Example 7]
1.60,3.40,0.20,–,–,–,CC[n+]1ccccc1 [Example 2]
–,–,–,0.16,1.44,–,Br.CCCC[n+]1ccn(C)c1 [Example 17]
2.91,3.00,0.46,–,–,0.478,C[N+](C)(C)CCO [Example 5]
1.77,2.11,–,–,–,–,CCCC[n+]1ccn(C)c1 [Example 3]
5.96,0.21,0.78,–,–,–,C[N+]1(CCCCS(=O)(=O)O)CCCC1 [Example 8]
–,–,–,2.08,1.06,–,CCCCn1cc[n+](C)c1 [Example 15]
4.10,4.38,–,–,–,–,CCCCn1cc[n+](C)c1 [Example 6]
–,–,–,0.89,7.67,–,"C[S+](C)[O-] [Example 19, dimethyl sulfoxide, reference compound]"
24.79,2.80,1.39,–,–,0.45,"C[S+](C)[O-] [Example 14, dimethyl sulfoxide, reference compound]"

SMILES,Cyclohexanol D (distribution coefficient) [1],Cyclohexanone D (distribution coefficient) [2],Cyclohexanol Log D [1],IL/Octane distribution coefficient 2-Octanone [3],IL/Octane distribution coefficient Octanol [4],Cyclohexanone Log D [2]
"O [Example 1, H2O, reference compound]",0.86,0.34,−0.07,–,–,−0.47
